Columns and labels:
[1] = target: T1, Full length human recombinant HDAC8 protein (Homo sapiens, UniProt Q9BY41); test: In vitro histone deacetylase assay: enzymatic HDAC8 electrophoretic mobility shift assay; type: biochemical; conditions: electrophoretic mobility shift assay; enzyme 1 nM; 2 μM fluorescently labeled peptide substrate RHKK(Ac)-NH2; 25° C.; 12 concentrations; read-out: HDAC8 IC50
T1 construct: Full length human recombinant HDAC8 protein was expressed in baculoviral system; made in house
T1 sequence (Q9BY41 1-377): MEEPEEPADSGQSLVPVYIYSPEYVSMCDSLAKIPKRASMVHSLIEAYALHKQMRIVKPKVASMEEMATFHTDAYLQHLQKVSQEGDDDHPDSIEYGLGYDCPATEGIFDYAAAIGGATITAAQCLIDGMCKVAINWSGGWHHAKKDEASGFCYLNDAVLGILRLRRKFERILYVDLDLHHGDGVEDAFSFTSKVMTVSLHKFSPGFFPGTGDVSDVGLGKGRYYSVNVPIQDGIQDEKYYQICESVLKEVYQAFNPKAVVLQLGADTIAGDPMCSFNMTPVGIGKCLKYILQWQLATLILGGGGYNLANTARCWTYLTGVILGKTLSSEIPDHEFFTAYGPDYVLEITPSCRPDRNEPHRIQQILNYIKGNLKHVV

[2] = target: T2, Recombinant N-terminal GST tag full-length human HDAC8 (Homo sapiens, UniProt Q9BY41); test: HDAC8 probe binding assay, time resolved fluorescence (TRF) format; conditions: compounds grouped by IC50 range (Table 2)
T2 construct: Recombinant N-terminal GST tag full-length human HDAC8; purchased SignalChem H90-30G-1000; host or cells: baculovirus in Sf9 insect cells
T2 sequence (Q9BY41 1-377): T1 sequence (Q9BY41 1-377)
Outline: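 IC50 values come from four-parameter logistic fits of percent inhibition, scaled between DMSO (high) and no-enzyme (low) controls. Time-resolved fluorescence (ex 340, em 485/535 nm) was read after 16 h at room temperature. Enzyme was Sf9-expressed full-length human HDAC8 with an N-terminal GST tag, in a probe-binding format.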

Structure (SMILES)	IC50 [1] [nM]	IC50 [2] [nM]
CN1CCCC[C@H]1CN1C(=O)COc2ccc(C(=O)NO)cc21 (stereo in doubt) [Compound I-47, N-hydroxy-4-((1-methylpiperidin-2-yl)methyl)-3-oxo-3,4-dihydro-2H-benzo[b][1,4]oxazine-6-carboxamide]	> 1000	> 1000
O=C(NO)c1ccc2c(c1)N(CC[C@@H]1CCS(=O)(=O)C1)C(=O)CO2 (stereo in doubt) [Compound I-54, 4-(2-(1,1-dioxidotetrahydrothiophen-3-yl)ethyl)-N-hydroxy-3-oxo-3,4-dihydro-2H-benzo[b][1,4]oxazine-6-carboxamide]	100 to 1000	25 to 100
O=C(NO)c1ccc2c(c1)N(Cc1csc(C3CC3)n1)CCO2 [Compound I-20, 4-((2-cyclopropylthiazol-4-yl)methyl)-N-hydroxy-3,4-dihydro-2H-benzo[b][1,4]oxazine-6-carboxamide]	100 to 1000	> 1000
O=C(NO)c1ccc2c(c1)N(Cc1ccccc1F)CCO2 [Compound I-27, 4-(2-fluorobenzyl)-N-hydroxy-3,4-dihydro-2H-benzo[b][1,4]oxazine-6-carboxamide]	< 25	25 to 100
O=C(NO)c1ccc2c(c1)N(CC1CCC1)C(=O)CO2 [Compound I-31, 4-(cyclobutylmethyl)-N-hydroxy-3-oxo-3,4-dihydro-2H-benzo[b][1,4]oxazine-6-carboxamide]	25 to 100	25 to 100
O=C(NO)c1ccc2c(c1)N(Cc1cccc(F)c1)C(=O)CO2 [Compound I-33, 4-(3-fluorobenzyl)-N-hydroxy-3-oxo-3,4-dihydro-2H-benzo[b][1,4]oxazine-6-carboxamide]	25 to 100	≤ 25
O=C(NO)c1ccc2c(c1)N(Cc1ccc(OC(F)(F)F)cc1)C(=O)CO2 [Compound I-36, N-hydroxy-3-oxo-4-(4-(trifluoromethoxy)benzyl)-3,4-dihydro-2H-benzo[b][1,4]oxazine-6-carboxamide]	< 25	≤ 25
CS(=O)(=O)c1ccccc1CN1CCOc2ccc(C(=O)NO)cc21 [Compound I-130, N-hydroxy-4-(2-(methylsulfonyl)benzyl)-3,4-dihydro-2H-benzo[b][1,4]oxazine-6-carboxamide]	100 to 1000	–
O=C(NO)c1ccc2c(c1)N(Cc1ccccc1OC(F)F)CCO2 [Compound I-131, 4-(2-(difluoromethoxy)benzyl)-N-hydroxy-3,4-dihydro-2H-benzo[b][1,4]oxazine-6-carboxamide]	25 to 100	–
O=C(NO)c1ccc2c(c1)N(Cc1cccc(OC(F)F)c1)CCO2 [Compound I-132, 4-(3-(difluoromethoxy)benzyl)-N-hydroxy-3,4-dihydro-2H-benzo[b][1,4]oxazine-6-carboxamide]	< 25	–
O=C(NO)c1ccc2c(c1)N(CC1CCCCC1)CCO2 [Compound I-133, 4-(cyclohexylmethyl)-N-hydroxy-3,4-dihydro-2H-benzo[b][1,4]oxazine-6-carboxamide]	25 to 100	–
CS(=O)(=O)c1ccc(CN2CCOc3ccc(C(=O)NO)cc32)c(Cl)c1 [Compound I-134, 4-(2-chloro-4-(methylsulfonyl)benzyl)-N-hydroxy-3,4-dihydro-2H-benzo[b][1,4]oxazine-6-carboxamide]	< 25	–
CC(c1ccccc1Cl)N1CCOc2ccc(C(=O)NO)cc21 (stereo not shown) [Compound I-136, 4-(1-(2-chlorophenyl)ethyl)-N-hydroxy-3,4-dihydro-2H-benzo[b][1,4]oxazine-6-carboxamide]	100 to 1000	–
CS(=O)(=O)c1ccc(CN2CCOc3ccc(C(=O)NO)cc32)c(C(F)(F)F)c1 [Compound I-137, N-hydroxy-4-(4-(methylsulfonyl)-2-(trifluoromethyl)benzyl)-3,4-dihydro-2H-benzo[b][1,4]oxazine-6-carboxamide]	25 to 100	–
COc1cc(CN2CCOc3ccc(C(=O)NO)cc32)ccc1S(C)(=O)=O [Compound I-138, N-hydroxy-4-(3-methoxy-4-(methylsulfonyl)benzyl)-3,4-dihydro-2H-benzo[b][1,4]oxazine-6-carboxamide]	100 to 1000	–
COc1ccc(CN2CCOc3ccc(C(=O)NO)cc32)cc1S(C)(=O)=O [Compound I-139, N-hydroxy-4-(4-methoxy-3-(methylsulfonyl)benzyl)-3,4-dihydro-2H-benzo[b][1,4]oxazine-6-carboxamide]	25 to 100	–
O=C(NO)c1ccc2c(c1)N(C(=O)c1ccccc1)CCO2 [Compound I-140, 4-benzoyl-N-hydroxy-3,4-dihydro-2H-benzo[b][1,4]oxazine-6-carboxamide]	> 1000	–
O=C(NO)c1ccc2c(c1)N(Cc1cccc(C(F)(F)F)c1)C(=O)CO2 [Compound I-144, N-hydroxy-3-oxo-4-(3-(trifluoromethyl)benzyl)-3,4-dihydro-2H-benzo[b][1,4]oxazine-6-carboxamide]	< 25	–
O=C(NO)c1ccc2c(c1)N(Cc1cccc(OC(F)(F)F)c1)C(=O)CO2 [Compound I-146, N-hydroxy-3-oxo-4-(3-(trifluoromethoxy)benzyl)-3,4-dihydro-2H-benzo[b][1,4]oxazine-6-carboxamide]	< 25	–
Cc1ccccc1CN1C(=O)COc2ccc(C(=O)NO)cc21 [Compound I-148, N-hydroxy-4-(2-methylbenzyl)-3-oxo-3,4-dihydro-2H-benzo[b][1,4]oxazine-6-carboxamide]	100 to 1000	–

Now from value to molecule:

IC50 [1] [nM]	IC50 [2] [nM]	Structure (SMILES)
25 to 100	–	CC1Oc2ccc(C(=O)NO)cc2N(Cc2ccccc2)C1=O (stereo not shown) [Compound I-153, 4-benzyl-N-hydroxy-2-methyl-3-oxo-3,4-dihydro-2H-benzo[b][1,4]oxazine-6-carboxamide]
25 to 100	–	COc1ccc(CN2c3cc(C(=O)NO)ccc3OCC2C)cc1 (stereo not shown) [Compound I-155, N-hydroxy-4-(4-methoxybenzyl)-3-methyl-3,4-dihydro-2H-benzo[b][1,4]oxazine-6-carboxamide]
> 1000	–	O=C(NO)c1ccc2c(c1)N(C(=O)N1CC3(CCOCC3)c3ccccc31)CCO2 [Compound I-156, N-hydroxy-4-(2′,3′,5′,6′-tetrahydrospiro[indoline-3,4′-pyran]-1-carbonyl)-3,4-dihydro-2H-benzo[b][1,4]oxazine-6-carboxamide]
100 to 1000	–	COc1ccc(CN2C(=O)C3(CCCCC3)Oc3ccc(C(=O)NO)cc32)cc1 [Compound I-158, N-hydroxy-4-(4-methoxybenzyl)-3-oxo-3,4-dihydrospiro[benzo[b][1,4]oxazine-2,1′-cyclohexane]-6-carboxamide]
25 to 100	–	COc1ccc(CN2C(=O)C(C)(C)Oc3ccc(C(=O)NO)cc32)c(Cl)c1 [Compound I-159, 4-(2-chloro-4-methoxybenzyl)-N-hydroxy-2,2-dimethyl-3-oxo-3,4-dihydro-2H-benzo[b][1,4]oxazine-6-carboxamide]
< 25	–	Cc1ccc(CN2C(=O)COc3ccc(C(=O)NO)cc32)cc1C [Compound I-219, 4-(3,4-dimethylbenzyl)-N-hydroxy-3-oxo-3,4-dihydro-2H-benzo[b][1,4]oxazine-6-carboxamide]
100 to 1000	–	O=C(NO)c1ccc2c(c1)N(Cc1ccccc1-c1ccccc1)C(=O)CO2 [Compound I-257, 4-([1,1′-biphenyl]-2-ylmethyl)-N-hydroxy-3-oxo-3,4-dihydro-2H-benzo[b][1,4]oxazine-6-carboxamide]
100 to 1000	–	O=C(NO)c1ccc2c(c1)N(Cc1nc3ccc(Cl)cc3n1CC1CC1)C(=O)CO2 [Compound I-260, 4-((6-chloro-1-(cyclopropylmethyl)-1H-benzo[d]imidazol-2-yl)methyl)-N-hydroxy-3-oxo-3,4-dihydro-2H-benzo[b][1,4]oxazine-6-carboxamide]
25 to 100	–	O=C(NO)c1ccc2c(c1)N(Cc1ccccc1SC(F)(F)F)C(=O)CO2 [Compound I-262, N-hydroxy-3-oxo-4-(2-((trifluoromethyl)thio)benzyl)-3,4-dihydro-2H-benzo[b][1,4]oxazine-6-carboxamide]
100 to 1000	–	CCn1c(CN2C(=O)COc3ccc(C(=O)NO)cc32)nc2ccc(Cl)cc21 [Compound I-269, 4-((6-chloro-1-ethyl-1H-benzo[d]imidazol-2-yl)methyl)-N-hydroxy-3-oxo-3,4-dihydro-2H-benzo[b][1,4]oxazine-6-carboxamide]
100 to 1000	–	O=C(NO)c1ccc2c(c1)N(Cc1nc3ccccc3n1CC1CC1)C(=O)CO2 [Compound I-279, 4-((1-(cyclopropylmethyl)-1H-benzo[d]imidazol-2-yl)methyl)-N-hydroxy-3-oxo-3,4-dihydro-2H-benzo[b][1,4]oxazine-6-carboxamide]
100 to 1000	–	CCCn1c(CN2C(=O)COc3ccc(C(=O)NO)cc32)nc2ccccc21 [Compound I-282, N-hydroxy-3-oxo-4-((1-propyl-1H-benzo[d]imidazol-2-yl)methyl)-3,4-dihydro-2H-benzo[b][1,4]oxazine-6-carboxamide]
100 to 1000	–	CCCc1nc(C)sc1CN1C(=O)COc2ccc(C(=O)NO)cc21 [Compound I-283, N-hydroxy-4-((2-methyl-4-propylthiazol-5-yl)methyl)-3-oxo-3,4-dihydro-2H-benzo[b][1,4]oxazine-6-carboxamide]

Reference: US10370343B2, “[6,6] Fused bicyclic HDAC8 inhibitors” (FORMA Therapeutics, Inc., priority 2015, dated 2019)
